Legend:
Experiment in all cases: inhibition of NH3-dependent nitrite production by intact cells
Format in all cases: cell-based
[1] = tested on: T1, pMMO from Methylococcus capsulatus (Bath); conditions: 20 mM NH4+, 20 mM formate as reductant, 10 mM PIPES pH 7, 37°C, 30 min preincubation
T1 construct: gene pmoB; sMMO excluded by naphthalene assay

[2] = target: T2, AMO from "Ca. Nitrosotalea sinensis" Nd2 (Nitrosotalea sinensis, UniProt A0A2H1EFS5+A0A2H1EG39+A0A2H1EG64)
T2 construct: gene amoA; native membrane enzyme complex in intact cells (not purified)
T2 sequence (A0A2H1EG64 24-239 limits assumed): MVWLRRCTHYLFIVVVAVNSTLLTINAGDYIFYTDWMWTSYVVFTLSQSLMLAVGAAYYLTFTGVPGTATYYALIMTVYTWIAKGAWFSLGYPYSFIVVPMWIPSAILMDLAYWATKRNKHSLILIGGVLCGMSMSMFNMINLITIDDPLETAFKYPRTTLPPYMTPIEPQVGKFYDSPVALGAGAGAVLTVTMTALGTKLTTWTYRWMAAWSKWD
T2 sequence (A0A2H1EFS5 1-188): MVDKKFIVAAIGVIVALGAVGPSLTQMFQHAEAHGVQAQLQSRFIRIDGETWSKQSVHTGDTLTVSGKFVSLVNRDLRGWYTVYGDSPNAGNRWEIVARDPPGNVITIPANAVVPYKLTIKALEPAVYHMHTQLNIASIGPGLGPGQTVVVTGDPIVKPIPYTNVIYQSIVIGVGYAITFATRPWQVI
T2 sequence (A0A2H1EG39 1-187): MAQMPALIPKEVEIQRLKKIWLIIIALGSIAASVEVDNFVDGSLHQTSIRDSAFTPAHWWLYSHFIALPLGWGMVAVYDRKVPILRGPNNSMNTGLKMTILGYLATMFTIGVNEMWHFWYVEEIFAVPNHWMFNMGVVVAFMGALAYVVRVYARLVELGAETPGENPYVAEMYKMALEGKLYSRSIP
Description: inhibition of NH3-dependent nitrite production by intact cells on AMO from "Ca.

[3] = target: T3, AMO from Nitrosomonas europaea (Nitrosomonas europaea, UniProt Q04507+Q04508+Q82T63)
T3 construct: gene amoA1; native membrane enzyme complex in intact cells (not purified); genome carries duplicate amo operons
T3 sequence (Q04507 2-276): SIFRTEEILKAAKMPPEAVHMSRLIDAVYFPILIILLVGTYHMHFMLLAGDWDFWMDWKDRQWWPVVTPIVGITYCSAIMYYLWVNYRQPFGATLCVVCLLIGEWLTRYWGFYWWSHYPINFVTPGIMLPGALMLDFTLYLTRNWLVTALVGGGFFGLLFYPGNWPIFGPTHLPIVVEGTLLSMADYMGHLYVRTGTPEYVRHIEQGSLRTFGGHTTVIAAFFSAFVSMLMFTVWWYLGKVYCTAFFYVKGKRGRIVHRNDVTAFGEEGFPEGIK
T3 sequence (Q04508 26-420): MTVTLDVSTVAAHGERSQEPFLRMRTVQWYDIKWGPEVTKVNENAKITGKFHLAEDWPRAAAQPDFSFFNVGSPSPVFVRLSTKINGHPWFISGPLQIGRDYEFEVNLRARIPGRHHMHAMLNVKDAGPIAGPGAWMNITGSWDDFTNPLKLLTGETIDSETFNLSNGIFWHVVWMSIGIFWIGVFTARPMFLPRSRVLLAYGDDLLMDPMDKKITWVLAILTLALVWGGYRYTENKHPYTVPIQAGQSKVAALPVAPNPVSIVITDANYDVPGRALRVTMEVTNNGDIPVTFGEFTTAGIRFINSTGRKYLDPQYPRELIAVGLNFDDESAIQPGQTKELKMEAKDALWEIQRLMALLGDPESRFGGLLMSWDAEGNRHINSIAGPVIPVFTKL
T3 sequence (Q82T63 1-271): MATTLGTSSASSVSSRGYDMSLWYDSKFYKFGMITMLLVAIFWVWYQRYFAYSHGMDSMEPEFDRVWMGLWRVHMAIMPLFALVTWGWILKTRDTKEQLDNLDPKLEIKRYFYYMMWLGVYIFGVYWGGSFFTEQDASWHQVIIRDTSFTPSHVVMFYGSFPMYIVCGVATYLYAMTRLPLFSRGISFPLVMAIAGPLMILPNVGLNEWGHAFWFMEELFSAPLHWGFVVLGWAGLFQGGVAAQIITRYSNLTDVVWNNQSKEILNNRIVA

[4] = target: T4, AMO from "Ca. Nitrosocosmicus franklandus" C13 (Candidatus Nitrosocosmicus franklandianus, UniProt A0A484I8C2+A0A484I9U7+A0A484IBG0)
T4 construct: gene amoA; native membrane enzyme complex in intact cells (not purified); copper-dependent multimeric
T4 sequence (A0A484I9U7 1-216): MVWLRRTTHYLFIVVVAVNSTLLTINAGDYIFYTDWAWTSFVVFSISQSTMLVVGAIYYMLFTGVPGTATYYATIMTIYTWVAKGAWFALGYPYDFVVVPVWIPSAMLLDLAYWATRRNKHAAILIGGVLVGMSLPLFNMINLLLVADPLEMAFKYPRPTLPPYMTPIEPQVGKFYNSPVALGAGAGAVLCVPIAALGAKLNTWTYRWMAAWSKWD
T4 sequence (A0A484I8C2 1-192): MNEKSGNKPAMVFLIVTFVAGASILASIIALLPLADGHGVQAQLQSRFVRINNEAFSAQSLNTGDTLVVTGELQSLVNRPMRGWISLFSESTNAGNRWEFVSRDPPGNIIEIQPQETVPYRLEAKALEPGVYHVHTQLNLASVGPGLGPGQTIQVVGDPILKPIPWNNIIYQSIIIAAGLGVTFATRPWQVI
T4 sequence (A0A484IBG0 1-187): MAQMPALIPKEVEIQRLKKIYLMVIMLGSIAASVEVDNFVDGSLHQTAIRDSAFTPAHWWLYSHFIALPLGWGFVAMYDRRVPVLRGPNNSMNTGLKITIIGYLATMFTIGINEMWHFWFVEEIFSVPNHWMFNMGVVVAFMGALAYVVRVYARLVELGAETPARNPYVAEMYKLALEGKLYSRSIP
Description: inhibition of NH3-dependent nitrite production by intact cells on AMO from "Ca. Nitrosocosmicus franklandus" C13 | partial inhibition of NH3 oxidation by “Ca.

[5] = target: T3, AMO from Nitrosomonas europaea; conditions: 1 mM NH4+, 50 mM sodium phosphate pH 7.7, 2 mM MgCl2, 30°C, 30 min preincubation

Structure (SMILES) | % inhibition at 10 μM [1] | % inhibition at 10 μM [5] | also measured
C#CCCC [C5, 1-pentyne] | > 20% |  | inhibition at 10 µM [2]: 70 ± 1%; inhibition at 10 µM [3]: 98 ± 1%; inhibition at 10 µM [4]: 14 ± 1%
C#CCCCC [C6, 1-hexyne] | ~ 10% | AMO activity was completely inhibited by C6 to C8 1-alkynes | 
C#CCCCCC [C7, 1-heptyne] | ~ 10% | AMO activity was completely inhibited by C6 to C8 1-alkynes | 
C#CCCCCCC [C8, 1-octyne] |  | AMO activity was completely inhibited by C6 to C8 1-alkynes | 
C#Cc1ccccc1 [PA, phenylacetylene] |  |  | inhibition at 0.5 µM ([3]; read-out: % inhibition at 0.5 μM): 52.5 ± 1.7%; inhibition at 5 µM ([4]; read-out: % inhibition at 5 μM): 55.4 ± 1.4%
